Consider two compounds from paper PMC4775225, “Bromodomain inhibition of the transcriptional coactivators CBP/EP300 as a therapeutic strategy to target the IRF4 network in multiple myeloma” (eLife, 2016).

Like-named read-outs stand apart in the source and are kept apart here. Where only a bound is given, the exact number is not on record here.

The test system of assay [1] is IRF4 mRNA. In words: IRF4 mRNA expression, qRT-PCR. The assay is classed as cell-based, human. Particulars: for IC50: Homo sapiens, read-out: IC50, inhibition of IRF4 mRNA expression; for log2FC (IRF4): 2.5 μM, 6 hr, log2 fold change relative to DMSO. On the procedure: Total RNA was prepared with an RNeasy Mini Kit (Qiagen, Inc.; Hilden, Germany) with on column DNAse digestion and submitted to Ocean Ridge Biosciences (Palm Beach Gardens, FL) for sequencing and mapping. The data in RPKM for each gene with compound treatment was compared to DMSO treatment, and log2 fold changes were used for further analysis. Rank ordered gene lists were used for Gene Set Enrichment Analysis ([Subramanian et al., 2005]). RNA preparation, cDNA synthesis, and qRT-PCR were performed as described ([Mertz et al., 2011]). For dose titration experiments, cells in 96 -well plates were lysed in lysis buffer (1% Triton X-100, […] pH 2.5) and used directly for cDNA synthesis and qRT-PCR. Primer sequences can be found in Supplementary file 1.
A general note: In qPCR the cycle at which signal appears reflects the starting amount.

The target of assay [2] is T1, full length BRD4 ZsGreen fusion protein (Homo sapiens, UniProt O60885).
T1 construct: CBP: CBP-bromodomain/BRD9; BRD4: full length BRD4; expressed in transfected cells
In words: Bromodomain chromatin release assay, BRD4 (U2OS, high content imaging). The assay is classed as cell-based. Particulars: 2 hr, n = 2 biological replicates ± SEM, read-out: IC50 (μM), BRD4 chromatin release (EC50). How it is done: As described previously ([Huang et al., 2014]), this assay monitors the compound-dependent release and aggregation of a fusion protein consisting of a bromodomain and the fluorescent protein ZsGreen. For the BRD4 chromatin release assay, U2OS cells capable of inducibly expressing the full-length BRD4 protein in fusion with ZsG were generated using the pLVT3G/ZsGreen-BRD4/TO3G vector and maintained in blasticidin at 15 μg/ml. […] Therefore, the bromodomain (BD) of CBP was cloned into full length BRD9 (replacing the BRD9 BD) in frame with a ZsGreen fluorescent tag (ZsG). U2OS cells capable of inducibly expressing the ZsGreen-CBPBD fusion protein were generated by lentiviral delivery of the pLVT3G/BRD9-ZsG-CBPBD/TO3G vector, which contains both the inducible fusion protein and the tet transactivator. Cells were selected and maintained in the presence of 15 μg/ml blasticidin. 5000 cells/well were seeded in 384-well imaging plates in the presence of 2 μg/ml doxycycline to induce the expression of ZsG-fusion proteins. After 16 hr of incubation with doxycycline, fresh media containing serial dilution of compounds were added to the cells for 2 hr at 37°C. Cells were fixed with 4% paraformaldehyde (PFA) dissolved in PBS for 15 min at room temperature. Images of cells were acquired using ImageXpress Micro (Molecular Devices, Inc.; Sunnyvale, CA) and processed with the Transfluor Module of MetaXpress software. Average pits per cell values were obtained from four adjacent images in each well with two technical replicates for each compound concentration. Dose-response curves were generated by plotting the average pits per cell values at each dose and EC50 values were calculated by a four-parameter non-linear regression model in GraphPad Prism.

Assay [3] deals with T2, TRIM24 bromodomain (Homo sapiens, UniProt O15164).
T2 construct: Differential scanning fluorimetry was carried out with the indicated isolated bromodomains at 4–8 μM
T2 sequence (O15164 899-1004 limits assumed): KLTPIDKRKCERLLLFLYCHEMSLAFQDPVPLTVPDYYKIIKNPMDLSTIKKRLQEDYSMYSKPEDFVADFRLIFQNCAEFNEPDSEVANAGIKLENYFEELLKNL
In words: Differential scanning fluorimetry. Particulars: TRIM24 4–8 μM, compound 20 μM; read-out: DTm. The assay is classed as binding. How it is done:
(§1) Variable buffer compositions were used for the different bromodomain proteins with 12X SYPRO orange dye, 20 μM of the compounds or equivalent percentage of DMSO, and 4–8 µM of the indicated protein. […] The melting temperature (Tm) for each sample was determined using the ViiA7 software (version 1.2.2) and the ΔTm was calculated by subtracting the Tm of the control from the Tm of the compound treated sample.
(In general: Differential scanning fluorimetry follows unfolding on heating by fluorescence.)

Assay [4] deals with GCN5 bromodomain (Homo sapiens, UniProt Q92830). In words: Differential scanning fluorimetry. Type of assay: binding. Particulars: GCN5 4–8 μM, compound 20 μM; read-out: DTm. How it is done:
as §1

In assay [5] the target is T3, BRD9 bromodomain (Homo sapiens, UniProt Q9H8M2).
T3 construct: Differential scanning fluorimetry was carried out with the indicated isolated bromodomains at 4–8 μM
T3 sequence (Q9H8M2 136-240 limits assumed): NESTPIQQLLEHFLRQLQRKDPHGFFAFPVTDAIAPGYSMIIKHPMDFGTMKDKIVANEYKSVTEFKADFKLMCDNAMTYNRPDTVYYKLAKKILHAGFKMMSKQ
In words: Differential scanning fluorimetry. The assay is classed as binding. Particulars: BRD9 4–8 μM, compound 20 μM; read-out: DTm. How it is done: as §1

The target in assay [6] is T4, BAZ1A bromodomain (Homo sapiens, UniProt Q9NRL2).
T4 construct: Differential scanning fluorimetry was carried out with the indicated isolated bromodomains at 4–8 μM
T4 sequence (Q9NRL2 1430-1533 limits assumed): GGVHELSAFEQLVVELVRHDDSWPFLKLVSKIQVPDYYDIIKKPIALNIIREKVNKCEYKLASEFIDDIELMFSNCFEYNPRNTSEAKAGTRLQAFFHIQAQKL
In words: Differential scanning fluorimetry. Type of assay: binding. Particulars: BAZ1A 4–8 μM, compound 20 μM; read-out: DTm. On the procedure: as §1

The target of assay [7] is T5, BRD7 bromodomain (Homo sapiens, UniProt Q9NPI1).
T5 construct: Differential scanning fluorimetry was carried out with the indicated isolated bromodomains at 4–8 μM
T5 sequence (Q9NPI1 131-235 limits assumed): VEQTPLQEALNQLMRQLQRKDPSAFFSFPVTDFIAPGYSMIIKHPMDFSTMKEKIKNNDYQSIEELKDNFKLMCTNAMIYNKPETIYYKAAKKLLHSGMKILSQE
In words: Differential scanning fluorimetry. Type of assay: binding. The note with it: BRD7 4–8 μM, compound 20 μM; read-out: DTm. How it is done:
as §1

Assay [8] addresses T6, BRD1 bromodomain (Homo sapiens, UniProt O95696).
T6 construct: Differential scanning fluorimetry was carried out with the indicated isolated bromodomains at 4–8 μM
In words: Differential scanning fluorimetry. Type of assay: binding. The note with it: BRD1 4–8 μM, compound 20 μM; read-out: DTm. On the procedure:
as §1

Assay [9] has as its target T7, BRG1 bromodomain (Homo sapiens, UniProt P51532).
T7 construct: Differential scanning fluorimetry was carried out with the indicated isolated bromodomains at 4–8 μM
In words: Differential scanning fluorimetry. The assay is classed as binding. The note with it: BRG1 4–8 μM, compound 20 μM; read-out: DTm. On the procedure:
as §1

Assay [10] has as its target T8, CECR2 bromodomain (Homo sapiens, UniProt Q9BXF3).
T8 construct: Differential scanning fluorimetry was carried out with the indicated isolated bromodomains at 4–8 μM
In words: Differential scanning fluorimetry. Particulars: CECR2 4–8 μM, compound 20 μM; read-out: DTm. The assay is classed as binding. On the procedure: as §1

In assay [11] the test system is BRD4 bromodomain. In words: Differential scanning fluorimetry. The assay is classed as binding. The note with it: BRD4 4–8 μM, compound 20 μM. On the procedure: as §1
Assay [12] deals with T9, BRPF1 bromodomain (Homo sapiens, UniProt P55201).
T9 construct: Differential scanning fluorimetry was carried out with the indicated isolated bromodomains at 4–8 μM
T9 sequence (P55201 628-732 limits assumed): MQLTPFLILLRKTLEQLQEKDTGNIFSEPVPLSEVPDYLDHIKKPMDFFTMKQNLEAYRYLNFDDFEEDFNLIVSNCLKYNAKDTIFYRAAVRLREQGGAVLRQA
In words: Differential scanning fluorimetry. Particulars: BRPF1 4–8 μM, compound 20 μM; read-out: DTm. Type of assay: binding. On the procedure:
as §1

Assay [13] has as its target T10, ASH1L bromodomain (Homo sapiens, UniProt Q9NR48).
T10 construct: Differential scanning fluorimetry was carried out with the indicated isolated bromodomains at 4–8 μM
In words: Differential scanning fluorimetry. The assay is classed as binding. The note with it: ASH1L 4–8 μM, compound 20 μM; read-out: DTm. How it is done:
as §1

The target of assay [14] is T11, BRPF3 bromodomain (Homo sapiens, UniProt Q9ULD4).
T11 construct: Differential scanning fluorimetry was carried out with the indicated isolated bromodomains at 4–8 μM
T11 sequence (Q9ULD4 589-693 limits assumed): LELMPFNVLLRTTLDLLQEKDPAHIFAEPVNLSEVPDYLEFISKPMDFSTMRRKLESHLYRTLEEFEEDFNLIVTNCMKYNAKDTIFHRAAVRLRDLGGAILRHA
In words: Differential scanning fluorimetry. The note with it: BRPF3 4–8 μM, compound 20 μM; read-out: DTm. Type of assay: binding. On the procedure:
as §1

The target of assay [15] is T12, BAZ2B bromodomain (Homo sapiens, UniProt Q9UIF8).
T12 construct: Differential scanning fluorimetry was carried out with the indicated isolated bromodomains at 4–8 μM
T12 sequence (Q9UIF8 2060-2164 limits assumed): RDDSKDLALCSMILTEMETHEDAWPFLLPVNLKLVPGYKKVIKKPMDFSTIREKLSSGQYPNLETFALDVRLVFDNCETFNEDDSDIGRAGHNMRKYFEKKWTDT
In words: Differential scanning fluorimetry. Type of assay: binding. The note with it: BAZ2B 4–8 μM, compound 20 μM; read-out: DTm. On the procedure: as §1

The subject of assay [16] is WDR9 bromodomain. In words: Differential scanning fluorimetry. Type of assay: binding. Particulars: WDR9 4–8 μM, compound 20 μM. On the procedure: as §1
Assay [17] has as its target T13, BPTF bromodomain (Homo sapiens, UniProt Q12830).
T13 construct: Differential scanning fluorimetry was carried out with the indicated isolated bromodomains at 4–8 μM
In words: Differential scanning fluorimetry. The note with it: BPTF 4–8 μM, compound 20 μM; read-out: DTm. Type of assay: binding. On the procedure:
as §1

Assay [18] deals with BRD8 bromodomain. In words: Differential scanning fluorimetry. The assay is classed as binding. Particulars: BRD8 4–8 μM, compound 20 μM. On the procedure:
as §1

T8 sequence (Q9BXF3 434-538 limits assumed): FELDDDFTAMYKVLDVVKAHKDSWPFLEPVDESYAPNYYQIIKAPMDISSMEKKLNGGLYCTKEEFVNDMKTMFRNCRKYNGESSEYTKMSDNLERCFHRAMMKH
T7 sequence (P51532 1453-1564 limits assumed): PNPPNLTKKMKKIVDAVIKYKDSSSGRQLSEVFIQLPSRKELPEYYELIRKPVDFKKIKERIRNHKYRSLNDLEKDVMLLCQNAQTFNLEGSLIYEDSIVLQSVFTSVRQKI
GCN5 bromodomain, sequence (Q92830 728-832 limits assumed): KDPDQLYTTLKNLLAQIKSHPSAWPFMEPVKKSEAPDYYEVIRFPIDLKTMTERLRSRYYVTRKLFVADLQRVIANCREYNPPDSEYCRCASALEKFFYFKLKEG
T6 sequence (O95696 562-666 limits assumed): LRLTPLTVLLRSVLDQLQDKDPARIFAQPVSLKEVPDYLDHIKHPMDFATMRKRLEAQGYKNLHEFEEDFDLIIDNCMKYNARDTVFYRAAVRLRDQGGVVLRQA

On to `CCC(=O)N1CCOc2c(cc(-c3ccc(OC)c(OC)c3)cc2OC[C@H]2CCCN(C)C2)C1` [I-CBP112], for which the IC50 amounted to 2900 nM in [1] (OPM-2, OPM2, 6 hr) and 2000 nM in assay [1] (LP-1, 6 hr). Also, the EC50 in assay [2] was above 20 µM. Besides, the ΔTm at 20 µM was 0.32 °C in assay [3]; 0.14 °C in assay [4]; 0.37 °C in assay [5]; 0.41 °C in [6]; 0.44 °C in assay [7]; -0.44 °C in assay [8]. The ΔTm at 20 µM was 0.38 °C in [9]; 1.46 °C in assay [10]; 0.11 °C in assay [12]; 0.04 °C in assay [13]; 0.75 °C in [14]; 0.28 °C in [15]. Moreover, in [17], the ΔTm at 20 µM is 0.93 °C. The DTm amounted to 2.12 °C in assay [11], 0.04 °C in [16] and 0.88 °C in assay [18].

`COc1ccc(CCc2nc3cc(-c4c(C)noc4C)ccc3n2C[C@H](C)N2CCOCC2)cc1Cl` [SGC-CBP30]: the “log2FC (IRF4)” value in assay [1] (AMO1) is reported as -1.36; in [1] (H929), -0.75; in [1] (KMM1) it was -0.53; in assay [1] (KMS28BM), -0.93; in assay [1] (LP1) it was -1.23; in assay [1] (MOLP8), -1.29. The “log2FC (IRF4)” value in assay [1] (OPM2) was -0.98; in [1] (RPMI8226) it was -0.55; in assay [1] (RS411), -0.31. The IC50 was found to be 1100 nM in assay [1] (OPM-2, OPM2, 6 hr) and 860 nM in assay [1] (LP-1, 6 hr). Besides, in [1] (LP-1, 2.5 μM), the “time to suppression of IRF4 after addition of compound” value was at most 2 h. Moreover, the 50% effective concentration (EC50) in assay [2] amounted to 18.7 ± 1.2 µM. Also, the ΔTm at 20 µM was 0.43 °C in assay [3]; -0.09 °C in assay [4]; 0.37 °C in [5]; 0.18 °C in assay [6]; 0.5 °C in assay [7]; 0.26 °C in [8]. The ΔTm at 20 µM was 0.27 °C in [9]; 0.76 °C in [10]; 0.11 °C in [12]; 0.04 °C in assay [13]; -0.18 °C in assay [14]; -0.06 °C in [15]. Moreover, the ΔTm at 20 µM in assay [17] was determined as 0.69 °C. Also, the DTm in assay [11] is 2.01 °C; in [16], -0.08 °C; in assay [18], 0.76 °C.

The term IC50 denotes the concentration that gives 50% inhibition. Usually EC50 stands for the concentration needed to bring the measured effect to its halfway point.
